Measured values as given in patent US20250215039A1, “NUCLEOSIDES FOR TREATING CANCER” (PRIMEFOUR THERAPEUTICS, INC., priority 2022, published 2025).
Like-named read-outs stand apart in the source and are kept apart here.

Tested on: cancer cell lines
Experiment: Cancer cell proliferation activity (CellTiterGlo, 72 h)
Format: cell-based
Conditions: 72 h, 72 h, read-out: IC50 cell proliferation
Outline: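 Cells seeded overnight at 37 °C, then dosed with compound at 0.1% final DMSO and incubated 72 h at 37 °C (5% or 10% CO2 by medium).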

Question: Which IC50 (5637 (bladder)) does the source give for Nc1nc(=O)n([C@H]2C[C@H](O)[C@@H](CO)O2)cc1F [compound 169, 4-amino-5-fluoro-1-((2R,4S,5R)-4-hydroxy-5-(hydroxymethyl)tetrahydrofuran-2-yl)pyrimidin-2(1H)-one] here?
Answer: 1 nM

Question: What about the IC50 (CLS439 (bladder)) of the same molecule?
Answer: 23 nM

Question: And the IC50 (HS729 (muscle))?
Answer: 15 nM

Question: And the IC50 (J82 (bladder))?
Answer: 5 nM

Question: And the IC50 (JAR (placenta))?
Answer: 18 nM

Question: And the IC50 (MT3 (breast))?
Answer: 4 nM

Question: And the IC50 (PANCI (pancreas))?
Answer: 28 nM

Question: And the IC50 (PC3 (prostate))?
Answer: 14 nM

Question: And the IC50 (RD (muscle))?
Answer: 10 nM

Question: And the IC50 (T24 (bladder))?
Answer: 5 nM

Question: What about the IC50 (Homo sapiens, 22Rv1, 72 h, 22RV1 (prostate)) of the same molecule?
Answer: 2 nM

Question: What about the IC50 (Homo sapiens, 786-0, 72 h, 786O (kidney)) of the same molecule?
Answer: 17 nM

Question: And the IC50 (Homo sapiens, A204, 72 h, A204 (muscle))?
Answer: 51 nM

Question: What about the IC50 (Homo sapiens, A549, 72 h, A549 (lung)) of the same molecule?
Answer: 14 nM

Question: And the IC50 (Homo sapiens, A673, 72 h, A673 (bone))?
Answer: 3 nM

Question: What about the IC50 (Homo sapiens, A2780, 72 h, A2780 (ovary)) of the same molecule?
Answer: 8 nM

Question: And the IC50 (Homo sapiens, A-375, 72 h, A375 (skin))?
Answer: 7 nM

Question: And the IC50 (Homo sapiens, A-431, 72 h, A431 (skin))?
Answer: 0.4 nM

Question: What about the IC50 (Homo sapiens, ACHN, ACHN (kidney)) of the same molecule?
Answer: 3 nM

Question: What about the IC50 (Homo sapiens, ASPC1, 72 h, ASPC1 (pancreas)) of the same molecule?
Answer: 8 nM

Question: And the IC50 (Homo sapiens, BT-20, 72 h, BT20 (breast))?
Answer: > 50000 nM

Question: And the IC50 (Homo sapiens, BXPC-3, 72 h, BXPC3 (pancreas))?
Answer: 1 nM

Question: And the IC50 (Homo sapiens, C-33-A, C33A (endometrial))?
Answer: 9 nM

Question: What about the IC50 (Homo sapiens, CAKI-1, 72 h, CAKI1 (kidney)) of the same molecule?
Answer: 45 nM

Question: And the IC50 (Homo sapiens, COLO 205, 72 h, COLO205 (colon))?
Answer: 1 nM

Question: What about the IC50 (Homo sapiens, COLO-678, 72 h, COLO678 (colon)) of the same molecule?
Answer: > 50000 nM

Question: And the IC50 (Homo sapiens, Ca-Ski, CASKI (endometrial))?
Answer: 23 nM

Question: What about the IC50 (Homo sapiens, Caco-2, 72 h, CACO2 (colon)) of the same molecule?
Answer: > 50000 nM

Question: And the IC50 (Homo sapiens, Calu-6, 72 h, CALU6 (lung))?
Answer: 29 nM

Question: What about the IC50 (Homo sapiens, DLD-1, 72 h, DLD1 (colon)) of the same molecule?
Answer: 16 nM

Question: What about the IC50 (Homo sapiens, DU-145, 72 h, DU145 (prostate)) of the same molecule?
Answer: 10 nM

Question: And the IC50 (Homo sapiens, EFO-21, 72 h, EFO21 (ovary))?
Answer: 476 nM

Question: And the IC50 (Homo sapiens, EJ-28, 72 h, EJ28 (bladder))?
Answer: 4 nM

Question: And the IC50 (Homo sapiens, Granta-519, 72 h, GRANTA-519 (hematological))?
Answer: 9 nM

Question: What about the IC50 (Homo sapiens, HCT-15, 72 h, HCT15 (colon)) of the same molecule?
Answer: 15 nM

Question: And the IC50 (Homo sapiens, HCT-116, 72 h, HCT116 (colon))?
Answer: 23 nM

Question: And the IC50 (Homo sapiens, HEK293, 72 h, HEK293 (kidney))?
Answer: 30 nM

Question: What about the IC50 (Homo sapiens, HL-60, 72 h, HL-60 (hematological)) of the same molecule?
Answer: 8 nM

Question: What about the IC50 (Homo sapiens, HT-29, 72 h, HT29 (colon)) of the same molecule?
Answer: 2 nM

Question: And the IC50 (Homo sapiens, HT-1080, 72 h, HT1080 (connective tissue))?
Answer: 8 nM

Question: What about the IC50 (Homo sapiens, HeLa, HELA (endometrial)) of the same molecule?
Answer: 1530 nM

Question: And the IC50 (Homo sapiens, HepG2, 72 h, HEPG2 (liver))?
Answer: 2 nM

Question: And the IC50 (Homo sapiens, Hs-578T, HS578T (breast))?
Answer: > 50000 nM

Question: And the IC50 (Homo sapiens, IGROV-1, 72 h, IGROV1 (ovary))?
Answer: 22 nM

Question: What about the IC50 (Homo sapiens, IMR-90, 72 h, IMR90 (lung)) of the same molecule?
Answer: > 50000 nM

Question: What about the IC50 (Homo sapiens, JEG-3, 72 h, JEG3 (placenta)) of the same molecule?
Answer: 2 nM

Question: And the IC50 (Homo sapiens, JIMT-1, 72 h, JIMT1 (breast))?
Answer: 34 nM

Question: And the IC50 (Homo sapiens, K562, 72 h, K-562 (hematological))?
Answer: 94 nM

Question: What about the IC50 (Homo sapiens, Kasumi 1, 72 h, KASUMI-1 (hematological)) of the same molecule?
Answer: 16 nM

Question: What about the IC50 (Homo sapiens, L-363, 72 h, L-363 (hematological)) of the same molecule?
Answer: 3 nM

Question: What about the IC50 (Homo sapiens, LoVo, LOVO (colon)) of the same molecule?
Answer: 2 nM

Question: What about the IC50 (Homo sapiens, MCF7, 72 h, MCF7 (breast)) of the same molecule?
Answer: 2 nM

Question: And the IC50 (Homo sapiens, MDA-MB-231, 72 h, MDAMB231 (breast))?
Answer: 381 nM

Question: What about the IC50 (Homo sapiens, MDA-MB-435, 72 h, MDAMB435 (skin)) of the same molecule?
Answer: 17 nM

Question: And the IC50 (Homo sapiens, MDA-MB-436, 72 h, MDAMB436 (breast))?
Answer: 3 nM

Question: What about the IC50 (Homo sapiens, MDA-MB-468, 72 h, MDAMB468 (breast)) of the same molecule?
Answer: 18 nM

Question: And the IC50 (Homo sapiens, MG-63, 72 h, MG63 (bone))?
Answer: 10 nM

Question: What about the IC50 (Homo sapiens, MHH-ES-1, 72 h, MHHES1 (bone)) of the same molecule?
Answer: 5 nM

Question: What about the IC50 (Homo sapiens, MIA PaCa-2, 72 h, MIAPACA2 (pancreas)) of the same molecule?
Answer: 16 nM

Question: And the IC50 (Homo sapiens, MINO, MINO (hematological))?
Answer: 1 nM

Question: And the IC50 (Homo sapiens, MV4-11, 72 h, MV4-11 (hematological))?
Answer: 1 nM

Question: What about the IC50 (Homo sapiens, NCI-H23, 72 h, NCI-H23 (lung)) of the same molecule?
Answer: 8 nM

Question: What about the IC50 (Homo sapiens, NCI-H82, 72 h, NCIH82 (lung)) of the same molecule?
Answer: 6 nM

Question: And the IC50 (Homo sapiens, NCI-H292, 72 h, NCIH292 (lung))?
Answer: 19 nM

Question: What about the IC50 (Homo sapiens, NCI-H460, 72 h, NCIH460 (lung)) of the same molecule?
Answer: 2 nM

Question: What about the IC50 (Homo sapiens, OVCAR-3, 72 h, OVCAR3 (ovary)) of the same molecule?
Answer: 15 nM

Question: And the IC50 (Homo sapiens, OVCAR-4, 72 h, OVCAR4 (ovary))?
Answer: 538 nM

Question: And the IC50 (Homo sapiens, PLC-PRF-5, 72 h, PLCPRF5 (liver))?
Answer: 19 nM

Question: And the IC50 (Homo sapiens, Panc1005, 72 h, PANC1005 (pancreas))?
Answer: 553 nM

Question: And the IC50 (Homo sapiens, Ramos, RAMOS (hematological))?
Answer: 18 nM

Question: And the IC50 (Homo sapiens, SAOS-2, 72 h, SAOS2 (bone))?
Answer: 3 nM

Question: What about the IC50 (Homo sapiens, SF-268, 72 h, SF268 (brain)) of the same molecule?
Answer: 7 nM

Question: What about the IC50 (Homo sapiens, SF-295, 72 h, SF295 (brain)) of the same molecule?
Answer: 7 nM

Question: What about the IC50 (Homo sapiens, SK-HEP1, 72 h, SKHEP1 (liver)) of the same molecule?
Answer: 16 nM

Question: What about the IC50 (Homo sapiens, SK-LMS-1, 72 h, SKLMS1 (uterus)) of the same molecule?
Answer: 11 nM

Question: And the IC50 (Homo sapiens, SK-MEL-5, 72 h, SKMEL5 (skin; SKMELS [sic] in Table 9E))?
Answer: 29 nM

Question: What about the IC50 (Homo sapiens, SK-MEL-28, 72 h, SKMEL28 (skin)) of the same molecule?
Answer: 112 nM

Question: What about the IC50 (Homo sapiens, SK-N-AS, SKNAS (brain)) of the same molecule?
Answer: > 50000 nM

Question: And the IC50 (Homo sapiens, SK-N-SH, SKNSH (brain))?
Answer: 151 nM

Question: What about the IC50 (Homo sapiens, SK-OV-3, 72 h, SKOV3 (ovary)) of the same molecule?
Answer: 28 nM

Question: And the IC50 (Homo sapiens, SNB-75, 72 h, SNB75 (brain))?
Answer: > 50000 nM

Question: And the IC50 (Homo sapiens, SU-DHL10, 72 h, SU-DHL-10 (hematological))?
Answer: 226 nM

Question: And the IC50 (Homo sapiens, SU-DHL-6, 72 h, SU-DHL-6 (hematological))?
Answer: 7 nM

Question: And the IC50 (Homo sapiens, SW-620, 72 h, SW620 (colon))?
Answer: 2 nM

Question: What about the IC50 (Homo sapiens, TE-671, 72 h, TE671 (muscle)) of the same molecule?
Answer: 8 nM

Question: And the IC50 (Homo sapiens, THP-1, 72 h, THP-1 (hematological))?
Answer: 2 nM

Question: What about the IC50 (Homo sapiens, U2OS, U20S (bone; U2OS in Table 9E)) of the same molecule?
Answer: > 50000 nM

Question: And the IC50 (Homo sapiens, U-87 MG, U87MG (brain))?
Answer: > 50000 nM

Question: And the IC50 (Homo sapiens, UMUC3, 72 h, UMUC3 (bladder))?
Answer: 7 nM

Question: And the IC50 (Homo sapiens, UO-31, 72 h, UO31 (kidney))?
Answer: 31 nM

Question: And the IC50 (Homo sapiens, WSU-NHL, WSU-NHL (hematological))?
Answer: 1 nM

Question: And the IC50 (NCI-H358M, NCIH358M (lung))?
Answer: 6 nM

Question: And the IC50 (PBMC, PBMC (hematological))?
Answer: > 50000 nM

Question: What about the IC50 (RD-ES, RDES (bone)) of the same molecule?
Answer: 7 nM
